{"source": "patent US8303962B2", "about": "“Antibacterial and antifungal peptides” (C3 Jian, Inc., priority 2009, dated 2012)", "key": {"MRSA": {"tested_on": "MRSA", "type": "cell-based, Methicillin-resistant Staphylococcus aureus", "protocol": "(§1) In certain embodiments the MIC assays are performed as described herein in the Examples. For each organism, the media and growth conditions utilized is detailed in Table 8.\n(§2) In certain embodiments the MIC assays are performed as follows: For each organism, the media and growth conditions utilized is detailed in Table 8."}, "B. subtilis": {"tested_on": "B. subtilis", "type": "cell-based, Bacillus subtilis", "protocol": "as §1, §2"}, "A. baumannii": {"tested_on": "A. baumannii", "type": "cell-based, Acinetobacter baumannii", "details": "LB, 30° C., anaerobic", "protocol": "as §1, §2"}, "S. pneumoniae": {"tested_on": "S. pneumoniae", "type": "cell-based, Streptococcus pneumoniae", "details": "TSB supplemented with 5% yeast extract, 37° C., 10% CO2", "protocol": "as §1, §2"}, "A. niger": {"tested_on": "A. niger", "type": "cell-based, Aspergillus niger", "protocol": "as §1, §2"}, "T. rubrum": {"tested_on": "T. rubrum", "type": "cell-based, Trichophyton rubrum", "details": "T. rubrum; Potato Dextrose Agar, 25° C., aerobic", "protocol": "as §1, §2"}, "M. furfur ATCC 14521": {"tested_on": "M. furfur ATCC 14521", "details": "5 μM peptide, after 15 min of treatment, 30° C., 10^6 cells/ml, CFU vs no-peptide control", "protocol": "FIG. 1. Killing kinetics of PF-S028 L and D versions against M. furfur were determined using standard time-kill methods previously detailed (Eckert et al. (2006) Antimicrob Agents Chemother., 50: 1480-1488). Briefly, a log phase culture of M. furfur ATCC 14521 was diluted to 10^6 cells/ml in ATCC medium 1072. To the reaction tubes 5 μM of either PF-S028 L or PF-S028 D were added. A reaction tube to which 4 μl of 50% methanol served as the negative control. Reaction tubes were stored at 30° C. and at indicated intervals an aliquot was removed from the reaction tube and placed in a recovery tube where peptide was removed by dilution. An aliquot from the recovery tube was plated on ATCC medium 1072 agar plates and incubated at 30° C. until visible colonies formed. Colony forming units were calculated for the negative control (no peptide), PF-S028 L, and PF-S028 D treated cultures.\nIn some cases killing kinetic experiments were then conducted. Killing kinetics of PF-S028 L and D versions against M. furfur were determined as described in Eckert et al. (2006) Antimicrob Agents Chemother., 50: 1480-1488. Briefly, a log phase culture of M. furfur ATCC 14521 was diluted to 10^6 cells/ml in ATCC medium 1072. To the reaction tubes 5 μM of either PF-S028 L or PF-S028 D were added. […] Colony forming units were calculated for the negative control (no peptide), PF-S028 L, and PF-S028 D treated cultures."}, "P. aeruginosa": {"tested_on": "P. aeruginosa", "type": "cell-based, Pseudomonas aeruginosa", "details": "MH, 37° C., aerobic", "protocol": "as §1, §2"}, "M. furfur": {"tested_on": "M. furfur", "test": "MIC assay, M. furfur", "type": "cell-based, Malassezia furfur", "details": "ATCC medium 1072, 37° C., aerobic", "protocol": "as §1, §2"}, "S. mutans": {"tested_on": "S. mutans", "type": "cell-based, Streptococcus mutans", "details": "TH supplemented with 1% sucrose, 37° C., anaerobic", "protocol": "as §1, §2"}, "P. gingivalis": {"tested_on": "P. gingivalis", "type": "cell-based, Porphyromonas gingivalis", "details": "Columbia broth, 37° C., anaerobic", "protocol": "as §1, §2"}, "S. epidermidis": {"tested_on": "S. epidermidis", "type": "cell-based", "details": "BHI supplemented with 0.25% glucose, 37° C., aerobic", "protocol": "as §1, §2"}}, "note": "Where two headings read alike, the source gives them in different places. Peptide text beside a SMILES is read from it."}
{"smiles": "CC[C@H](C)[C@H](NC(=O)CNC(=O)[C@@H](N)CCSC)C(=O)N[C@H](C(=O)N[C@@H](C)C(=O)NCC(=O)N[C@H](C(=O)N[C@H](C(=O)N[C@@H](CCCCN)C(=O)N[C@@H](Cc1ccccc1)C(=O)N[C@H](C(=O)N[C@@H](CCCCN)C(=O)NCC(=O)N[C@@H](CC(C)C)C(=O)N[C@H](C(=O)N[C@@H](CCC(=O)O)C(=O)N[C@@H](CCCCN)C(=O)N[C@@H](Cc1ccccc1)C(=O)N[C@H](C(=O)NCC(=O)N[C@@H](CCCCN)C(=O)O)[C@@H](C)O)[C@@H](C)CC)[C@@H](C)CC)[C@@H](C)CC)[C@@H](C)CC)[C@@H](C)CC", "note": "[PF-006]", "values": [{"measurement": "MIC", "setting": "MRSA; MRSA, BHI supplemented with 2% glucose, 37° C., aerobic", "result": 50, "unit": "µM"}, {"measurement": "MIC", "setting": "B. subtilis; B. subtilis, BHI, 30° C., aerobic", "result": 25, "unit": "µM"}, {"measurement": "MIC", "setting": "A. baumannii", "result": 50, "unit": "µM"}]}
{"smiles": "CC(C)C[C@H](NC(=O)CNC(=O)[C@@H](N)CC(C)C)C(=O)N[C@H](C(=O)N[C@@H](C)C(=O)NCC(=O)N[C@H](C(=O)N[C@@H](C)C(=O)N[C@@H](Cc1ccc(O)cc1)C(=O)N[C@@H](C)C(=O)N[C@@H](C)C(=O)N[C@@H](CCC(N)=O)C(=O)N1CCC[C@H]1C(=O)N[C@H](C(=O)N[C@@H](CC(N)=O)C(=O)N[C@@H](CCC(N)=O)C(=O)N1CCC[C@H]1C(=O)N[C@H](C(=O)N[C@@H](CC(N)=O)C(=O)N[C@@H](CCC(N)=O)C(=O)N1CCC[C@H]1C(=O)N[C@H](C(=O)N[C@@H](CC(N)=O)C(=O)N[C@@H](CCC(N)=O)C(=O)N1CCC[C@H]1C(=O)N[C@H](C(=O)N[C@@H](CC(N)=O)C(=O)N[C@@H](CCC(N)=O)C(=O)N1CCC[C@H]1C(=O)N[C@H](C(=O)N[C@@H](CC(N)=O)C(=O)N[C@@H](CCC(N)=O)C(=O)N1CCC[C@H]1C(=O)N[C@H](C(=O)N[C@@H](CC(N)=O)C(=O)N[C@@H](CCC(N)=O)C(=O)N1CCC[C@H]1C(=O)N[C@@H](CCCNC(=N)N)C(=O)N[C@@H](Cc1c[nH]c2ccccc12)C(=O)O)[C@@H](C)O)[C@@H](C)O)[C@@H](C)O)[C@@H](C)O)[C@@H](C)O)[C@@H](C)O)C(C)C)[C@@H](C)O", "note": "[PF-520] (H-LGLTAGVAYAAQPTNQPTNQPTNQPTNQPTNQPTNQPRW-OH; N-terminus and C-terminus assumed)", "values": [{"measurement": "MIC", "setting": "S. pneumoniae", "result": 50, "unit": "µM"}]}
{"smiles": "CC[C@H](C)[C@H](NC(=O)[C@H](CCCNC(=N)N)NC(=O)[C@@H](NC(=O)[C@H](CCCCN)NC(=O)[C@H](CCCCN)NC(=O)[C@H](CC(C)C)NC(=O)[C@H](CC(C)C)NC(=O)[C@H](CCCCN)NC(=O)[C@H](CCCNC(=N)N)NC(=O)[C@H](Cc1c[nH]cn1)NC(=O)[C@H](CCCCN)NC(=O)[C@H](CCCCN)NC(=O)[C@H](CCCCN)NC(=O)[C@H](C)NC(=O)[C@H](CCSC)NC(=O)[C@H](CCCNC(=N)N)NC(=O)[C@H](CCCCN)NC(=O)[C@H](CCCNC(=N)N)NC(=O)[C@H](CCCNC(=N)N)NC(=O)[C@H](CCCCN)NC(=O)[C@H](CCCCN)NC(=O)[C@@H](NC(=O)[C@@H](NC(=O)[C@H](CO)NC(=O)CN)C(C)C)[C@@H](C)CC)[C@@H](C)O)C(=O)N[C@@H](CCC(N)=O)C(=O)N[C@@H](CCCNC(=N)N)C(=O)N[C@@H](CCCNC(=N)N)C(=O)N[C@@H](CCCNC(=N)N)C(=O)N[C@@H](C)C(=O)NCC(=O)N[C@@H](CCCCN)C(=O)O", "note": "[PF-527] (H-GSVIKKRRKRMAKKKHRKLLKKTRIQRRRAGK-OH; N-terminus and C-terminus assumed)", "values": [{"measurement": "MIC", "setting": "A. niger; A. niger, Potato Dextrose Agar, 25° C., aerobic", "result": 50, "unit": "µM"}, {"measurement": "MIC", "setting": "T. rubrum", "result": 25, "unit": "µM"}]}
{"smiles": "CC[C@H](C)[C@H](NC(=O)[C@H](CCCNC(=N)N)NC(=O)[C@H](CCCNC(=N)N)NC(=O)[C@H](CCCNC(=N)N)NC(=O)[C@@H](NC(=O)[C@H](CCSC)NC(=O)[C@H](CC(=O)O)NC(=O)[C@H](C)NC(=O)[C@H](CCSC)NC(=O)[C@H](C)NC(=O)[C@@H](NC(=O)[C@H](CC(C)C)NC(=O)[C@H](CCCCN)NC(=O)[C@H](CO)NC(=O)[C@H](CCC(=O)O)NC(=O)[C@@H](N)CCCNC(=N)N)[C@@H](C)CC)[C@@H](C)CC)C(=O)O", "note": "[PF-545] (H-RESKLIAMADMIRRRI-OH; N-terminus and C-terminus assumed)", "values": [{"measurement": "MIC", "setting": "MRSA", "result": 50, "unit": "µM"}, {"measurement": "MIC", "setting": "A. niger", "result": 50, "unit": "µM"}, {"measurement": "MIC", "setting": "B. subtilis", "result": 25, "unit": "µM"}]}
{"smiles": "CC[C@@H](C)[C@@H](NC(=O)[C@H](NC(=O)[C@@H](CO)NC(=O)CN)C(C)C)C(=O)N[C@H](CCCCN)C(=O)N[C@H](CCCCN)C(=O)N[C@H](CCCNC(=N)N)C(=O)N[C@H](CCCNC(=N)N)C(=O)N[C@H](CCCCN)C(=O)N[C@H](CCCNC(=N)N)C(=O)N[C@H](CCSC)C(=O)N[C@H](CO)C(=O)N[C@H](CCCCN)C(=O)N[C@H](CCCCN)C(=O)N[C@H](CCCCN)C(=O)N[C@H](Cc1c[nH]cn1)C(=O)N[C@H](CCCNC(=N)N)C(=O)N[C@H](CCCCN)C(=O)N[C@H](CCSC)C(=O)N[C@H](CC(C)C)C(=O)N[C@H](CCCNC(=N)N)C(=O)N[C@H](CCCNC(=N)N)C(=O)N[C@@H](C(=O)N[C@H](CCCNC(=N)N)C(=O)N[C@@H](C(=O)N[C@H](CCC(N)=O)C(=O)N[C@H](CCCNC(=N)N)C(=O)N[C@H](CCCNC(=N)N)C(=O)N[C@H](CCCCN)C(=O)N[C@H](CC(C)C)C(=O)NCC(=O)N[C@H](CCCCN)C(=O)O)C(C)C)[C@H](C)O", "note": "[PF-S028 D]", "values": [{"measurement": "M. furfur killed", "setting": "M. furfur ATCC 14521", "result": "over 99%"}]}
{"smiles": "CC[C@H](C)[C@H](NC(=O)[C@@H](NC(=O)[C@H](CO)NC(=O)CN)C(C)C)C(=O)N[C@@H](CCCCN)C(=O)N[C@@H](CCCCN)C(=O)N[C@@H](CCCNC(=N)N)C(=O)N[C@@H](CCCNC(=N)N)C(=O)N[C@@H](CCCCN)C(=O)N[C@@H](CCCNC(=N)N)C(=O)N[C@@H](CCSC)C(=O)N[C@@H](CO)C(=O)N[C@@H](CCCCN)C(=O)N[C@@H](CCCCN)C(=O)N[C@@H](CCCCN)C(=O)N[C@@H](Cc1c[nH]cn1)C(=O)N[C@@H](CCCNC(=N)N)C(=O)N[C@@H](CCCCN)C(=O)N[C@@H](CCSC)C(=O)N[C@@H](CC(C)C)C(=O)N[C@@H](CCCNC(=N)N)C(=O)N[C@@H](CCCNC(=N)N)C(=O)N[C@H](C(=O)N[C@@H](CCCNC(=N)N)C(=O)N[C@H](C(=O)N[C@@H](CCC(N)=O)C(=O)N[C@@H](CCCNC(=N)N)C(=O)N[C@@H](CCCNC(=N)N)C(=O)N[C@@H](CCCCN)C(=O)N[C@@H](CC(C)C)C(=O)NCC(=O)N[C@@H](CCCCN)C(=O)O)C(C)C)[C@@H](C)O", "note": "[PF-S028 L]", "values": [{"measurement": "M. furfur killed", "setting": "M. furfur ATCC 14521", "result": 39, "unit": "%"}]}
{"smiles": "CC[C@H](C)[C@H](NC(=O)[C@@H](NC(=O)[C@H](CO)NC(=O)CN)C(C)C)C(=O)N[C@@H](CCCCN)C(=O)N[C@@H](CCCCN)C(=O)N[C@@H](CCCNC(=N)N)C(=O)N[C@@H](CCCNC(=N)N)C(=O)N[C@@H](CCCCN)C(=O)N[C@@H](CCCNC(=N)N)C(=O)N[C@@H](CCSC)C(=O)N[C@@H](CO)C(=O)N[C@@H](CCCCN)C(=O)N[C@@H](CCCCN)C(=O)N[C@@H](CCCCN)C(=O)N[C@@H](Cc1c[nH]cn1)C(=O)N[C@@H](CCCNC(=N)N)C(=O)N[C@@H](CCCCN)C(=O)N[C@@H](CCSC)C(=O)N[C@@H](CC(C)C)C(=O)N[C@@H](CCCNC(=N)N)C(=O)N[C@@H](CCCNC(=N)N)C(=O)N[C@H](C(=O)N[C@@H](CCCNC(=N)N)C(=O)N[C@H](C(=O)N[C@@H](CCC(N)=O)C(=O)N[C@@H](CCCNC(=N)N)C(=O)N[C@@H](CCCNC(=N)N)C(=O)N[C@@H](CCCCN)C(=O)N[C@@H](CC(C)C)C(=O)NCC(=O)N[C@@H](CCCCN)C(=O)O)C(C)C)[C@@H](C)O", "note": "[PF-S028]", "values": [{"measurement": "MIC", "setting": "P. aeruginosa", "result": 50, "unit": "µM"}, {"measurement": "MIC", "setting": "M. furfur", "result": 2.5, "unit": "µM"}, {"measurement": "MIC", "setting": "S. mutans", "result": 50, "unit": "µM"}, {"measurement": "MIC", "setting": "P. gingivalis", "result": 25, "unit": "µM"}, {"measurement": "MIC", "setting": "S. epidermidis", "result": 25, "unit": "µM"}, {"measurement": "MIC", "setting": "T. rubrum", "result": 50, "unit": "µM"}]}
